Experimental data taken from ChEMBL document CHEMBL1151345, “Isolation of a new potential antitumor compound from Wedelia asperrima” (J Nat Prod, 1980).
Activity calls are given as the source filed them. No cut-off for these calls is given here.

Key:
Mus musculus = assay: Toxicity in ip dosed mouse; assay type: organism-based; conditions: in vivo
Rattus norvegicus [1] = species on record: Rattus norvegicus; assay: Toxicity in Wistar rat; assay type: organism-based; conditions: in vivo
Rattus norvegicus [2] = species on record: Rattus norvegicus; assay: Antitumor activity against aflatoxin B1-induced tumor in Wistar rat at 30 ug for 8 weeks; assay type: functional, organism-based

Structure (SMILES)	LD100 (Mus musculus) [mg/kg]	LD100 (Rattus norvegicus [1]) [mg/kg]	Activity (Rattus norvegicus [2])
C=C1[C@H](O)[C@]23CC[C@H]4C(C(=O)O)(C(=O)O)C[C@@H](O[C@@H]5O[C@H](CO)[C@@H](O)[C@H](OC(=O)CCc6ccccc6)[C@H]5NC(=O)CC(C)C)C[C@]4(C)[C@H]2CC[C@@]1(O)C3 [WEDELOSIDE]	1	1	Active
C=C1[C@H](O)[C@]23CC[C@H]4C(C(=O)O)(C(=O)O)C[C@@H](O[C@@H]5O[C@H](CO)[C@@H](O[C@@H]6O[C@@H](C)[C@H](O)[C@@H](O)[C@H]6O)[C@H](OC(=O)CCc6ccccc6)[C@H]5NC(=O)CC(C)C)C[C@]4(C)[C@H]2CC[C@@]1(O)C3	1	1	–
